Measured values: patent EP0812190B1 (priority 1993, dated 1995)
Structures can show the parent of a compound that is named as a salt. Where two headings read alike, the source gives them in different places. Marks after values point to notes of the source that are not given here.

Columns and labels:
[1] = molecular target: T1, MAO-B (Rattus norvegicus, UniProt P19643); experiment: Rat brain MAO inhibition by propargylamines (Table IA), MAO-B; assay type: biochemical; set-up: in a rat brain preparation of MAO; from tissue; host or cells: rat brain preparation; conditions: ratio between epimers, MAO-B
T1 sequence (P19643 1-520): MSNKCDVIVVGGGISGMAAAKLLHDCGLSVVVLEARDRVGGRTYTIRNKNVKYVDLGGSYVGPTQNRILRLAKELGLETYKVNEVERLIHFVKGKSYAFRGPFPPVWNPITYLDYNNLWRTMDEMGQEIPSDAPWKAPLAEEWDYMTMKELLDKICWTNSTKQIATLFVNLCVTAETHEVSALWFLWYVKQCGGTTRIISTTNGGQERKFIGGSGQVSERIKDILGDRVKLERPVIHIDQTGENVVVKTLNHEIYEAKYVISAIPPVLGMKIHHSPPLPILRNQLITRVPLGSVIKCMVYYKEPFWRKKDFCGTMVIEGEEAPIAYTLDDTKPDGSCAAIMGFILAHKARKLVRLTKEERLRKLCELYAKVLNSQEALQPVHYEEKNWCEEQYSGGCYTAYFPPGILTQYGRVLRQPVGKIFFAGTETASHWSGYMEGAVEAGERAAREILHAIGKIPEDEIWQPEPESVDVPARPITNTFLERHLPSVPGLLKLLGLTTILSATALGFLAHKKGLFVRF

[2] = molecular target: T2, MAO-A (Rattus norvegicus, UniProt P21396); experiment: Rat brain MAO inhibition by propargylamines (Table IA), MAO-A; assay type: biochemical; set-up: MAO activity determined in brain and liver using the general technique described above; from tissue; host or cells: brain and liver of treated rats; conditions: ratio between epimers
T2 sequence (P21396 1-526): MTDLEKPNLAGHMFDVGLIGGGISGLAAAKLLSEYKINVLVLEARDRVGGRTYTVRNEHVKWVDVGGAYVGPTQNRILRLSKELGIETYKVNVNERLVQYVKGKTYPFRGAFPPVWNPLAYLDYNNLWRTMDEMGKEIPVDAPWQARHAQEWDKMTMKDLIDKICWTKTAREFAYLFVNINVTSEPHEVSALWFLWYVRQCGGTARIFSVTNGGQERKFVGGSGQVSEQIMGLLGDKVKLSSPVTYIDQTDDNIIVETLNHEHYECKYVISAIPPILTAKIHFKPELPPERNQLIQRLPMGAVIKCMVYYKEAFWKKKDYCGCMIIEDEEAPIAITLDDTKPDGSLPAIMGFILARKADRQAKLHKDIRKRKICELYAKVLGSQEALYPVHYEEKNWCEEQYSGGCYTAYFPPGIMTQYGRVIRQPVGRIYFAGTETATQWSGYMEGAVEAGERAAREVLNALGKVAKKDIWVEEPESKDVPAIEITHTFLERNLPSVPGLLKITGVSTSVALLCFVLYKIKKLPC

[3] = tested on: maximal electroshock seizures; conditions: rats, p.o., 50 mg/kg
Source text: (§1) The MES test is a classical model to indicate efficacy for partial and generalized seizures in humans. […] Some agents, however, that prevent seizure spread have the side effect of lowering seizure threshold. These agents therefore have both proconvulsive and anticonvulsive side effects.

[4] = tested on: maximal electroshock seizures; experiment: animal or person; conditions: for ED50: Mus musculus, ip; for mice protected: 100 mg/kg
Source text: as §1

[5] = tested on: haloperidol-induced catalepsy
Experimental: (+)PAI mesylate, or racemic-PAI mesylate. All drugs were administered i.p. in a volume of 0.2 mL. Two hours later, haloperidol was injected s.c. at a dose of 6mg/kg in a volume of 0.1-0.2 mL. Motor coordination tests were made at 3 hours after giving haloperidol, that is, 5 hours after administering the presumed protective drugs.
Motor coordination tests and rigidity were quantified according to three different parameters: (a) ability to walk the length of a horizontal rod, 80 cm-long; (b) ability co climb down, face down, a vertical rod, 80 cm-long; (c) duration of immobility in an unnatural sitting posture whereby the abdomen of the mouse is pressed against a "wall." Full performance as in haloperidol-untreated mice is given the score of 4 in each test, or a total of 12 in all tests. Poor performance is given a score from 1 to 3.

[6] = tested on: closed head injury; conditions: 24 h after trauma; 0.1 mg/kg i.p. at 0, 4, 8 and 12 h
Experimental: (§2) Head trauma was induced in male rats under ether anesthesia by a well calibrated weight-drop device that falls over the exposed skull, covering the left cerebral hemisphere, 1-2 mm lateral to the midline, in the midcoronal plane.
(§3) [R] (+)PAI Mesylate was dissolved in water. The rats were injected intraperitoneally at a dose of 0.1 mg/kg, 0, 4, 8 and 12 h after induction of head trauma. Control rats were treated with water at the same times.

[7] = tested on: NMDA-induced cell death of cerebellum cells; experiment: cells
Experimental: Procedures: Cultures of mechanically dissociated neonatal rat cerebellum. […] The cerebella are then dissociated after 20-25 passages through a sterile 13 gauge, 10 cm long stainless steel needle attached to a 5 ml syringe with an inserted 45 µm pore size nylon sieve. The dissociated cells are centrifuged at 200g for 5 minutes, the supernatant discarded and the cells resuspended in enriched medium. The cell viability is determined by the trypan blue exclusion test. […] After 4 days in culture, the media are replaced with media containing the desired test compounds. Experiments are done in duplicate and repeated 2 or 3 times. […] Nerve cell survival is evaluated by phase contrast microscopy and trypan blue staining after 24 h.

[8] = tested on: neurological deficits; conditions: 300 mg/kg
Experimental: TD50 (median toxic dose). This test measures neurological deficits by the rotorod ataxia test. A mouse is placed on a knurled rod rotating at 6 rpm. It is then determined whether a mouse has the ability to maintain its equilibrium and stay on the rod for one minute in each of three trials.

[9] = tested on: crush injury of the optic nerve
Experimental: • a) General. […] At short terms, metabolic measurements were monitored in terms of the mitochondrial NADH/NAD ratio, which depends on the activity of the electron transport system, and thus indicate levels of energy production. Changes in ability of the nerve to produce energy as a consequence of injury were determined by comparing NADH levels in response to artificial transient anoxic insult before and after the injury. • b) Surface fluorometry - reflectometry. Monitoring of the intramitochondrial NADH redox state is based on the fact that NADH, unlike the oxidized form NAD^+, fluoresces when illuminated […]. A flexible Y-shaped bundle of optic fibers (light guide) was used to transmit the light to and from the optic nerve. […] Changes in the reflected light were correlated with changes in tissue absorption caused by hemodynamic effects and with movements of the optic nerve secondary to alterations in arterial blood pressure and nerve volume. […] Animal utilization was in accord with the ARVO Resolution on the use of animals in research. Male Sprague-Dawley (SPD) rats weighing 300-400g were anesthetized with sodium pentobarbitone (50 mg/kg intraperitoneally). With the animal's head held in place by a head holder, a lateral canthotomy was performed under a binocular operating microscope and the conjuctiva was incised lateral to the cornea.

[10] = tested on: α-MpT-induced hypokinesia; experiment: Reversal of α-MpT-induced hypokinesia in rats; assay type: in vivo
Experimental: The drug α-MpT is assumed to inhibit the formation of L-DOPA from tyrosine, and consequently the formation of dopamine itself. Lack of CNS dopamine is expressed as hypoactivity. Six month-old male Wistar rats (from Harlan Orkack, UK) were pretreated with saline, [R] […] Two hours later they received i.p. α-MpT at a dose of 100 mg/kg in 0.3-0.5 mL. Controls received saline. Following this, motor activity was recorded in a computerized activity cage for the duration of 10 hours. […] (+)PAI Mesylate at 2 mg/kg.

[11] = tested on: closed head injury; conditions: 0.1 mg/kg i.p. at 0, 4, 8 and 12 h after head trauma
Experimental: as §2
These criteria, referred to as the Neurological Severity Score (NSS), consist of a series of reflexes and motor functions. Points are given based on deficits in these criteria. At 24h the rats were reevaluated.
as §3

[12] = tested on: minimal seizure threshold; conditions: 141 mg/kg
Experimental: Timed Intravenous Infusion of Metrazol Test. This test measures the minimal seizure threshold of each animal. […] The time is then recorded (sec) from the start of infusion until the appearance of the first twitch (first focal seizure) and onset of clonus (clonic seizure).

[13] = tested on: minimal seizure threshold; conditions: literature (Kupferberg); cited from earlier work
[14] = Rattus norvegicus, 24 h, read-out: Percent Protection
[15] = Rattus norvegicus, 24 h, read-out: Surviving Cells

For `C#CCNC1CCCc2ccccc21` (racemic) [Example 1-PAT, N-propargyl-1-aminotetralin], the “RELATIVE POTENCY R/S B” value [1] was 0.5 and the “RELATIVE POTENCY R/S A” value [2] was 4.
With `C#CCN[C@@H]1CCc2ccccc21.Cl` [[R](+)PAI HCl, R-(+)-N-Propargyl-1-aminoindan hydrochloride] the “animals protected from seizures” value [3] was “three out of four” and the ED50 [4] was 79 mg/kg.
In the case of `C#CCN[C@@H]1CCc2ccccc21.CS(=O)(=O)O` [[R](+)PAI Mesylate, R-(+)-N-propargyl-1-aminoindan mesylate], the “% of control” value ([5]; 3.0 mg/kg i.p.) is reported as 60%, the “Score+SE” value ([5]; 3.0 mg/kg i.p.) is reported as 6.4±0.5 and the “% of control” value ([5]; 5.0 mg/kg i.p.) is reported as 73%. The “Score+SE” value ([5]; 5.0 mg/kg i.p.) was 8.7±0.9, the “Score+SE” value ([5]; 10 mg/kg i.p.) was 11.3±0.3 and the “% of control” value ([5]; 10 mg/kg i.p., listed as [R] (+)PAI Mesylate, mesylate) was 94%. The “% of control” value ([5]; 10 mg/kg i.p., listed as [R] (+)PAI mesylate, mesylate) was “≈ 94%”, the “% of control” value ([5]; 15 mg/kg i.p.) was 90% and the “Score+SE” value ([5]; 15 mg/kg i.p.) was 10.8±0.5. For the same molecule, the “Score+SE” value ([5]; […] i.p. (free base), 2 h before haloperidol 6mg/kg s.c., max score 12) was 7.2±1, the “% H2O in the brain” value [6] was 82.1 ± 0.6 % and the inhibition at 0.01 µM [7, 14] was 2%. The inhibition at 10 µM [7, 14] was 27%, the viability at 1 µM [7, 15] was 22% and the viability at 10 µM [7, 15] was 37%. The “Percent Protection” value ([7]; cerebellar cell cultures, 1440 min, 1 µM) was 12%, the “Surviving Cells” value ([7]; rat, cerebellar cell cultures, 24 h, 0.01 µM) was 12% of untreated controls and the acute neurotoxicity ([8]; mouse, in vivo) was “did not show any neurotoxicity”. The “injury-induced reduction in energy production (NADH response to anoxia)” value ([9]; 2 mg/kg i.p. immediately after injury) was “blocked the injury-induced reduction in energy production”, the “CAP amplitude (Mean ± Std. Error.)” value ([9]; single injection 0.5 mg/kg immediately after injury, 14 days later) was 2104 ± 313 µV and the mice protected [4] was “one out of three”. For the same molecule, the “Score (total motor activity, 10 hours)” value ([10]; 2 mg/kg i.p., 2 h before α-MpT 100 mg/kg i.p., SE in the line below) was 14,132**, the “% of control” value ([10]; 2 mg/kg i.p., relative to saline control, listed as [R] (+)PAI Mesylate, mesylate) was 89% and the “% of control” value ([10]; 2 mg/kg i.p., relative to saline control, mesylate) was “about 90%”. For the same molecule, the “% of control” value ([10]; 5 mg/kg i.p.) was 81%, the “Score (total motor activity, 10 hours)” value ([10]; 5 mg/kg i.p.) was 12,893* and the “NSS 1 h” value [11] was 16.7. The “NSS 24 h” value [11] was 10.2 and the “Δ NSS (1h - 24h)” value [11] was 6.5 ± 0.7.
With `C#CCN[C@H]1CCc2ccccc21` [[S](-)PAI HCl, S-(-)-N-Propargyl-1-aminoindan hydrochloride, reference compound] the “animals protected from seizures” value [3] was “Four out of four” and the ED50 [4] was 57 mg/kg.
With `C#CCN[C@H]1CCc2ccccc21` [[S](-)PAI Mesylate, reference compound] the acute neurotoxicity ([8]; mice) was “four out of four mice showed neurotoxicity and spasticity”, the mice protected [4] was “three out of three” and the “time to first focal seizure and onset of clonus” value (from here on “time”) [12] was “reduces the time”.
In the case of `NC(=O)N1c2ccccc2C=Cc2ccccc21` [carbamazepine], the “time” value [13] is listed as “do not show this effect”.
For `O=C1NC(=O)C(c2ccccc2)(c2ccccc2)N1` [phenytoin], the “time” value [13] is listed as “do not show this effect”.
In the case of “N-Methyl-N-propargyl-1-aminotetralin [Example 2-MPAI]”, the “RELATIVE POTENCY +/- B” value [1] is reported as 0.2 and the “RELATIVE POTENCY +/- A” value [2] is reported as 3.
